Results taken from the supplement of paper PMC10307832.

Columns and labels:
Test in all cases: relative viability (nuclei count vs DMSO), 5 days (fraction); higher = more cells survive
Carboplatin + Luminespib = compound: C1CC(C1)(C(=O)O)C(=O)O.[NH2-].[NH2-].[Pt+2] [Carboplatin] + CCNC(=O)c1noc(-c2cc(C(C)C)c(O)cc2O)c1-c1ccc(CN2CCOCC2)cc1 [Luminespib] (partner 0.01 µM)
Method in brief: (§1)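 Lung cancer cell lines, seeded in 1536-well plates, were treated the following day by pin tool with a single drug or with five library-drug doses (not always all listed) in √10 steps on top of a fixed anchor-drug dose. Cells were fixed and nuclei stained in one step after 5 days, and nuclei were counted. Relative viability is the nuclei count for treated wells divided by that for vehicle wells, reported as medians of duplicate plates.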

Carboplatin + Crizotinib = compound: C1CC(C1)(C(=O)O)C(=O)O.[NH2-].[NH2-].[Pt+2] [Carboplatin] + C[C@@H](Oc1cc(-c2cnn(C3CCNCC3)c2)cnc1N)c1c(Cl)ccc(F)c1Cl [Crizotinib] (partner 1 µM)
Method in brief: as §1

Carboplatin + AZD7762 = compound: C1CC(C1)(C(=O)O)C(=O)O.[NH2-].[NH2-].[Pt+2] [Carboplatin] + NC(=O)Nc1cc(-c2cccc(F)c2)sc1C(=O)N[C@H]1CCCNC1 [AZD7762] (partner 0.2 µM)
Method in brief: as §1

GSK126 + Lapatinib = compound: CC[C@H](C)N1C=C(C2=C(C=C(C=C21)C3=CN=C(C=C3)N4CCNCC4)C(=O)NCC5=C(C=C(NC5=O)C)C)C [GSK126] + CS(=O)(=O)CCNCc1ccc(-c2ccc3ncnc(Nc4ccc(OCc5cccc(F)c5)c(Cl)c4)c3c2)o1 [Lapatinib] (partner 2 µM)
Method in brief: as §1

Cell Line	relative viability (Carboplatin + Luminespib; first compound 0.08 µM)	relative viability (Carboplatin + Luminespib; first compound 0.253 µM)	relative viability (Carboplatin + Luminespib; first compound 2.53 µM)	relative viability (Carboplatin + Luminespib; first compound 8 µM)	relative viability (Carboplatin + Crizotinib; first compound 0.08 µM)	relative viability (Carboplatin + Crizotinib; first compound 0.253 µM)	relative viability (Carboplatin + Crizotinib; first compound 0.8 µM)	relative viability (Carboplatin + Crizotinib; first compound 2.53 µM)	relative viability (Carboplatin + Crizotinib; first compound 8 µM)	relative viability (Carboplatin + AZD7762; first compound 0.08 µM)	relative viability (Carboplatin + AZD7762; first compound 0.253 µM)	relative viability (Carboplatin + AZD7762; first compound 0.8 µM)	relative viability (Carboplatin + AZD7762; first compound 2.53 µM)	relative viability (Carboplatin + AZD7762; first compound 8 µM)	relative viability (GSK126 + Lapatinib; first compound 0.08 µM)	relative viability (GSK126 + Lapatinib; first compound 0.253 µM)	relative viability (GSK126 + Lapatinib; first compound 0.8 µM)	relative viability (GSK126 + Lapatinib; first compound 2.53 µM)	relative viability (GSK126 + Lapatinib; first compound 8 µM)	relative viability (Carboplatin + Luminespib; first compound 0.8 µM)
EKVX	0.903	0.864	0.695	0.727	1.19	1.09	0.985	0.875	0.947	0.743	0.757	0.737	0.739	0.537	0.226	0.22	0.211	0.203	0.221	
NCI-H647	0.169	0.239	0.185	0.13	1.11	1.04	1.01	1.11	0.632	0.604	0.474	0.444	0.476	0.303	1.22	1.01	0.927	1.11	0.865	0.154
LXF-289	0.79	0.787	0.677	0.568	0.821	0.839	0.708	0.796	0.764	1.17	1.16	1.07	1.06	1.03	0.92	0.84	0.894	0.885	0.881	0.601
LOU-NH91	0.393	0.337	0.306	0.34	0.74	0.731	0.714	0.735	0.725	0.824	0.761	0.751	0.764	0.773	0.812	0.77	0.755	0.882	0.871	0.329
NCI-H1355	0.826	0.814	0.588	0.537	1.16	1.18	1.02	1.02	1.02	0.98	0.877	0.626	0.791	0.729	1.04	1.07	0.989	0.967	0.992	0.765
NCI-H1666	1.02	1.02	0.824	0.702	0.997	1.07	0.838	0.917	0.568	0.973	0.916	0.811	0.779	0.831	0.635	0.608	0.724	0.704	0.695	0.814
HCC-15	0.434	0.302	0.306	0.42	0.914	0.875	0.775	0.688	0.643	1.17	1.22	1.16	1.33	0.644	0.841	0.888	0.806	0.785	0.727	0.177
NCI-H3122	0.102	0.0787	0.09	0.0968	0.3	0.299	0.275	0.323	0.28	1.04	1.01	0.946	0.974	0.885	1.01	1.01	1.04	0.965	0.95	0.0812
201T	1.02	1.06	0.988	1	1.03	1.06	1.02	1.06	0.994	0.643	0.608	0.612	0.482	0.423	1.04	1.04	1.09	1.1	1.16	1.1
RERF-LC-KJ	1.24	1.18	0.918	0.5	0.824	0.861	0.84	0.72	0.631	1.14		1.04	0.995	0.828	0.927	0.854	0.822	0.889	0.867	1.13
NCI-H1734	0.21	0.236	0.188	0.174	0.682	0.673	0.637	0.716	0.614	0.575	0.558	0.558	0.46	0.419	1.07	1	1.03	1.18	1.15	0.193
NCI-H1651	0.829	0.782	0.424	0.229	0.931	0.929	0.738	0.748	0.712	0.539	0.537	0.447	0.456	0.436	0.896	0.834	0.805	0.843	0.894	0.627
PC-14	0.116	0.144	0.107	0.155	0.895	0.856	0.851	0.83	0.532	0.541	0.316	0.361	0.314	0.202	0.359	0.309	0.292	0.307	0.326	0.148
NCI-H358	0.359	0.77	0.409	0.222	0.596	0.744	0.629	0.588	0.525	0.732	0.514	0.516	0.575	0.561	0.487	0.461	0.525	0.454	0.51	0.259
NCI-H1915	0.867	0.876	0.613	0.328	0.873	0.929	0.875	0.756	0.521	0.64	0.706	0.679	0.647	0.39	1.08	0.97	1.03	0.978	0.993	0.631
NCI-H1975	0.227	0.227	0.18	0.113	0.955	0.943	0.919	0.969	0.911	0.868	0.746	0.679	0.742	0.691	0.952	0.898	0.916	0.852	0.888	0.17

Cell Line	relative viability (Carboplatin + Luminespib; first compound 0.08 µM)	relative viability (Carboplatin + Luminespib; first compound 0.253 µM)	relative viability (Carboplatin + Luminespib; first compound 2.53 µM)	relative viability (Carboplatin + Luminespib; first compound 8 µM)	relative viability (Carboplatin + Crizotinib; first compound 0.08 µM)	relative viability (Carboplatin + Crizotinib; first compound 0.253 µM)	relative viability (Carboplatin + Crizotinib; first compound 0.8 µM)	relative viability (Carboplatin + Crizotinib; first compound 2.53 µM)	relative viability (Carboplatin + Crizotinib; first compound 8 µM)	relative viability (Carboplatin + AZD7762; first compound 0.08 µM)	relative viability (Carboplatin + AZD7762; first compound 0.253 µM)	relative viability (Carboplatin + AZD7762; first compound 0.8 µM)	relative viability (Carboplatin + AZD7762; first compound 2.53 µM)	relative viability (Carboplatin + AZD7762; first compound 8 µM)	relative viability (GSK126 + Lapatinib; first compound 0.08 µM)	relative viability (GSK126 + Lapatinib; first compound 0.253 µM)	relative viability (GSK126 + Lapatinib; first compound 0.8 µM)	relative viability (GSK126 + Lapatinib; first compound 2.53 µM)	relative viability (GSK126 + Lapatinib; first compound 8 µM)	relative viability (Carboplatin + Luminespib; first compound 0.8 µM)
BEN	0.462	0.3	0.311	0.266	1.15	0.946	0.78	0.79	0.761	0.912	0.792	0.725	0.723	0.818	0.818	0.826	0.756	0.799	0.811	0.257
EPLC-272H	0.308	0.297	0.387	0.226	0.975	1.05	0.892	0.888	0.937	0.308	0.218	0.309	0.208	0.208	0.995	0.975	0.851	1.06	0.915	0.266
LU99A	0.29	0.319	0.188	0.211	0.62	0.665	0.556	0.464	0.422	0.425	0.405	0.349	0.243	0.196	1.07	1	0.913	1	0.99	0.247
NCI-H2405	0.813	0.838	0.606	0.724	0.901	0.906	0.847	0.813	0.754	0.832	0.757	0.757	0.646	0.454	1.12	1.02	1.06	1.17	1.15	0.591
HOP-62	0.957	0.876	0.799	0.719	1.04	1	0.925	0.88	0.534	0.793	0.665	0.669	0.608	0.497	1.17	1.05	1.07	1.06	0.937	0.819
NCI-H727	0.377	0.3	0.24	0.312	0.988	0.953	0.704	0.614	0.317	0.579	0.461	0.628	0.685	0.639	0.746	0.81	0.984	0.884	1.06	0.432
PC-3 [JPC-3]	0.807	0.749	0.716	0.703	1.03	1.04	0.962	0.966	0.902	1.04	0.732	0.836	0.706	0.553	0.43	0.489	0.527	0.477	0.462	0.616
NCI-H2347	0.573	0.421	0.432	0.352	0.903	0.697	0.635	0.571	0.632	0.837	0.741	0.805	0.752	0.798	1.04	1.04	0.917	0.994	0.94	0.368
NCI-H838	0.284	0.291	0.192	0.188	0.838	0.918	0.784	0.861	0.797	1.09	0.957	0.837	0.869	0.758	1.12	0.938	0.882	0.865	0.906	0.195
HCC-44	1.16	0.755	0.305	0.31	0.752	0.822	0.742	0.751	0.668	1.06	1.03	1.02	1.01	0.992	0.998	1.07	1.04	0.846	1.02	0.406
A-427	0.934	0.928	0.803	0.976	0.91	1.13	0.894	0.976	0.799	0.75	0.759	0.778	0.762	0.795	1.14	1.1	1.05	1.07	0.962	0.928
CAL-12T	0.324	0.334	0.579	0.282	0.856	0.7	0.738	0.66	0.707	0.848	0.579	0.674	0.555	0.548	0.63	0.674	0.615	0.809	0.644	0.317
NCI-H460	0.0398	0.0303	0.0341	0.0233	0.799	0.809	0.76	0.614	0.16	0.612	0.53	0.524	0.279	0.111	0.971	1.03	0.879	1.14	1.1	0.0396
ABC-1	1.17	0.704	0.435	0.273	1.35	1.18	0.885	0.91	0.498		0.674	0.91	0.77	0.66	1.26	1.29	1.07	1.18	0.872	0.451
LK-2	0.177	0.198	0.16	0.178	0.196	0.224	0.242	0.233	0.228	0.712	0.582	0.341	0.412	0.497	0.947	0.952	0.876	0.916	0.673	0.179
NCI-H2085	0.454	0.419	0.488	0.377	1.01	0.932	0.778	0.754	0.676	1.02	1.01	0.973	0.995	0.909	0.922	0.847	0.78	0.803	0.78	0.494
